In ChEMBL document CHEMBL1147065, “Identification of an in vivo inhibitor of Bacillus anthracis spore germination” (J Biol Chem, 2007) one finds Activity and Ki data, which are given here for six molecules.

In assay [1] the test system is Bacillus anthracis. Nature of the assay: Inhibition of cytopathic effect in Bacillus anthracis Sterne infected mouse RAW264.7 macrophage after 6 hrs by propidium iodide exclusion assay. It is filed as functional, organism-based. (Damage to the host cells serves as the signal in cytopathic effect assays.)
For assay [2], the target named is Bacillus anthracis. Nature of the assay: Inhibition of inosine and alanine-induced germination of Bacillus anthracis Sterne spore pre-incubated for 15 mins. Format: functional, organism-based.
The subject of assay [3] is Bacillus anthracis. Nature of the assay: Inhibition of cytopathic effect in Bacillus anthracis Sterne infected mouse RAW264.7 macrophage at 1 uM to 2 uM after 6 hrs by propidium iodide exclusion assay. It is filed as functional. Set-up: scale not given: the % may be the effect or the level left.
For assay [4], the system named is Bacillus anthracis. Nature of the assay: Inhibition of cytopathic effect in Bacillus anthracis Sterne infected mouse RAW264.7 macrophage assessed as lack of propidium iodide positive cells after 7 hrs. It is filed as functional, organism-based.

Active and inactive are the calls of the source. The rule behind the calls is not given here.

Usually Ki stands for a measure of affinity in units of concentration, obtained from inhibition or displacement.

For the molecule `Nc1nc(Cl)c2ncn([C@@H]3O[C@H](CO)[C@@H](O)[C@H]3O)c2n1`, the outcome in assay [1] was inactive. The molecule further registered a Ki in assay [2] of 87 µM.
For the molecule `CSc1ncnc2c1ncn2[C@@H]1O[C@H](CO)[C@@H](O)[C@H]1O`, in assay [1], the result was inactive. Also, the Ki in assay [2] amounted to 31 µM.
In the case of `OC[C@H]1O[C@@H](n2cnc3c(O)nc(O)nc32)[C@H](O)[C@@H]1O` [XANTHOSINE], the result in assay [1] was inactive. In assay [2], this molecule displayed a Ki of 777 µM.
Take `Nc1nc(=S)c2ncn([C@@H]3O[C@H](CO)[C@@H](O)[C@H]3O)c2[nH]1` [THIOGUANOSINE]: the Activity in assay [3] is 88%. The outcome in assay [4] was Active. In assay [2], this molecule gave a Ki of 98 µM.
With `COc1nc(N)nc2c1ncn2[C@@H]1O[C@H](CO)[C@@H](O)[C@H]1O`, the outcome in assay [1] was inactive. The Ki in assay [2] amounted to 34 µM.
`Nc1nc(N)c2ncn([C@@H]3O[C@H](CO)[C@@H](O)[C@H]3O)c2n1`: in assay [1], the result was inactive. In addition, the Ki in assay [2] stood at 68 µM.
